Source: patent EP0351625B1, “Anti-HIV activity of BV-3608” (Bristol-Myers Squibb Company, priority 1988, dated 1990)

Key:
[1] = test system: HTLV-IIIB infected MT-4 cells; assay: Inhibition of cytopathic effect of HIV on infected MT-4 cells (viable cell count); type: cell-based; details: Human immunodeficiency virus 1, IIIB, MT4; HIV-infected MT-4 cells, 3 or 6 days (Figure 1); read-out: concentration affording virtually complete protection of MT-4 cells
Experimental: The cell line MT-4 disclosed by Harada, S. et al., in Virology, Vol. 146, pp. 272-281 (1985) is appropriate. This cell line features rapid and efficient replication of HTLV-III, followed by cytolysis.
(§1) MT-4 cells are maintained at 37°C in the complete medium. Two days before the start of an experiment, viable cells are counted by the trypan blue dye exclusion method and the concentration is adjusted to 30 x 10⁴ cells/mL.
Infection of the MT-4 cells with the virus is made at a multiplicity of infection (MOI) of 0.002. MT-4 cells (60 x 10⁴ cells/mL) are mixed with a 1:100 dilution of the viral preparation and incubated for 1 hour at 37°C for adsorption of the virus. After adsorption, HTLV-IIIB infected MT-4 cells are washed once and resuspended with complete medium. […]
The test substance is dissolved in dimethylsulfoxide (DMSO) and the solutions are then diluted with complete medium to concentrations of 10, 5.0, 2.5, and 1.25 mcg/ml to provide test solutions. […] To measure anti-HIV activity, the number of viable cells surviving in the test medium are counted by the trypan blue dye-exclusion method on day 3 and day 6 after infection of the cells. […]

[2] = test system: MOLT-4 and MOLT-4/HTLV-IIIB; assay: Cell fusion / giant cell formation in MOLT-4 and MOLT-4/HTLV-IIIB co-culture (cell size distribution); type: cell-based; details: 25 µg/ml in medium, mixed culture; 11.8% without compound
Experimental: The effect on cell fusion which results in cell to cell infection and giant cell formation may be examined as follows. MOLT-4 and its virus-producing cell, MOLT-4/HTLV-IIIB are mixed in 1:1 in proportion of cell number and adjusted to a final concentration of 5 x 10⁵ cells/ml with the medium containing various concentrations of compounds, and then incubated for 10 hours in a CO₂ incubator. After incubation, the distribution of cell size is measured by a cell multisizer (Coulter Electronics Ltd., Luton, England). Viable cells are counted by trypan blue dye exclusion method. Giant cell formation is observed under a phase- contrast microscope. Particles with diameters of from 3 to 100 µm in diameter are observed in the co-cultures. Only those particles having a diameter of more than 9 µm are considered to be cells. Cell sizes in each of the cultures of MOLT-4 or MOLT-4/HTLV-IIIB are similar, and the proportion of cell particles with 12-14 µm diameters are virtually the same in each culture. The percentage of cell particles having more than a 20 µm diameter was 2.7% and in the MOLT-4 cell culture, and 2.4% in the MOLT-4/HTLV-IIIB cell culture. […] This is a reflection of the infectivity by cell-to-cell fusion of the MOLT-4/HTLV-IIIB cells for the uninfected MOLT-4 cells. The test method measures the ability of test substances to prevent or reduce this effect. […]

[3] = Cytotoxicity on uninfected MT-4 cells (viable cell count, trypan blue dye exclusion); type: cell-based; details: human
Experimental: as §1
The test substance is dissolved in dimethylsulfoxide (DMSO) and the solutions are then diluted with complete medium to concentrations of 10, 5.0, 2.5, and 1.25 mcg/ml to provide test solutions. Matched portions of HTLV-IIIB infected and uninfected MOLT-4 cells are adjusted to 60 x 10⁴ cells/mL and mixed with the same volume of diluted test solution to make the final concentration of 30 x 10⁴ cells/mL, and 5.0, 2.5, […], and 0.63 mcg/mL of test substance. To measure anti-HIV activity, the number of viable cells surviving in the test medium are counted by the trypan blue dye-exclusion method on day 3 and day 6 after infection of the cells.
Figure 1 illustrates the inhibition of cytopathic effect of the HIV virus on MT-4 cells by Compound No. 28567. First, the unshaded bars show the lack of cytotoxicity of the compound on uninfected MT-4 cells. Only at concentrations of 28567 in excess of 30 µg/ml is a noticeable or consistent reduction in the number of cells observed after 3 or 6 days, and even at 120 mg/ml, 60-70% of the cells survive.

[4] = Acute toxicity in mice after single intravenous and intramuscular administrations; details: mouse, in vivo
Experimental: The acute toxicity of Compound No. 28567 was determined in mice after single intravenous and intramuscular administrations.

SMILES: CN[C@@H]1[C@H](O[C@@H]2OC[C@@H](O)[C@H](O)[C@H]2O)[C@@H](O)[C@H](O[C@H]2c3cc(C)c(C(=O)N[C@H](C)C(=O)O)c(O)c3-c3c(cc4c(c3O)C(=O)c3cc(OC)cc(O)c3C4=O)[C@@H]2O)O[C@@H]1C [Compound No. 28567]
- minimal effective concentration [1]: ≥ 3.5 µg/mL
- proportion of particles exceeding 20 µm [2]: 2.7%
- MCC ([3]; after 3 or 6 days (Figure 1), read-out: concentration at which a noticeable or consistent reduction in the number of cells is observed): > 30 µg/mL
- viability ([3]; at 120 mg/ml (so in the source), 3 or 6 days, read-out: cells survive): 60 to 70%
- sign of toxicity ([4]; 400 mg/kg): no sign of toxicity
- LD50 ([4]; iv, read-out: LD₅₀): 140 mg/kg
